Test results from US20250204528A1, “USE OF 2-AMINO-3-INDOLYL BUTYRIC ACID OR 3-METHYLPYRROLIDINE-2-CARBOXYLIC ACID AS PLANT IMMUNITY ELICITOR” (NANJING TIANNONG BIOTECHNOLOGY CO., LTD, priority 2021, published 2025).
“And” between values parts separate entries of the source, which are not always exact repeats. Equal values may be shown once.

Experiments:
[1] = test system: tomato spotted wilt viruses; assay: Induction of tobacco against infection by tomato spotted wilt viruses; assay type: in vivo, Nicotiana benthamiana; details: for Disease index / Relative immune effect (%): tobacco; for Disease indexes of the tobacco / Relative immune effects: each treatment in concentration range 0.1-10 nm; for Content of virus proteins: relative protein content in leaves after 3 d, Western blot/Image J
Method: Tomato spotted wilt viruses were taken from Yunnan province of China. An initial virus source was placed in a refrigerator at −80° C. for storage and activated by inoculation on Nicotiana benthamiana leaves by using a friction inoculation. Virus plasmids were extracted for transformation of Escherichia coli competent cells. The bacteria were coated on a resistant plate for culture, single colonies were selected for PCR screening, and positive colonies were selected for sequencing and subsequent plasmid extraction. The plasmids with normal sequencing were added into Agrobacterium competent cells and subjected to the Agrobacterium transformation by using an electric shock method. The transformed Agrobacterium liquid was coated on a screening plate with corresponding resistance and cultured at 28±1° C. for 48 h. Single colonies of the Agrobacterium on the transformation plate were selected, placed in a 5-mL LB medium containing the corresponding resistance and cultured overnight at 28° C. and 180 rpm. The bacteria were collected by centrifugation at 6,000 rpm for 2 min, suspended in an Agrobacterium treatment buffer (10 mM MgCl2, 10 mM MES and 10 μM acetosyringone) to enable the OD600 value of the suspension to be 0.5, and treated in a dark place at 28° C. for 3 h for later use.
2-amino-3-indolyl butyric acid was dissolved in distilled water and gradiently diluted with distilled water to obtain solutions of 0 nM, 0.1 nM, 1 nM and 10 nM. Nicotiana benthamiana seeds were sown in a small pot, illuminated at 22±1° C. for 12 h/12 h, and cultured for 5 weeks. Healthy tobacco plants (preferably 8-10 leaves) were selected and sprayed with the 2-amino-3-indolyl butyric acid solutions at the above concentrations on stems and leaves. The treatment was repeated once every 24 h and a total of two treatments was performed. After 24 h, the Agrobacterium liquid with the uniform concentration was extracted by using a 1 mL injector, an injection port of the injector was directly pressed on a small hole on the back of the tobacco leaves, and the bacterium liquid was slowly injected to infiltrate the whole leaves. The infiltrated tobacco was transferred to the environment at 22±1° C. and with 12 h/12 h illumination for culturing. The tobacco was observed and recorded by a microscope after 3 d. Meanwhile, the sample was taken, the gray levels of protein bands were analyzed by using Western blot combined with an Image J software, and the relative protein content of the viruses in the leaves was determined. The disease condition of the tobacco leaves was observed after 15 d and the disease index was recorded according to GB/T23222-2008 Grade and investigation method of tobacco diseases and insect pests. The formula was as follows: […]
Grading standard of diseases caused by tomato spotted wilt viruses (grading and investigation by taking plants as units): • grade 0: the whole plants were disease-free; • grade 1: the veins of interior leaves were obvious or leaves were slightly spotted, and the diseased plants were not obviously dwarfed; • grade 3: one third leaves were spotted but not deformed, or the plants were dwarfed to the heights of more than three fourths of those of normal plants; • grade 5: one third to one half leaves were spotted, or a few leaves were deformed, or main veins were blackened, or the plants were dwarfed to the heights of two thirds to three fourths of those of the normal plants; • grade 7: one half to two thirds leaves were spotted or deformed, or a few main lateral veins were necrotic, or the plants were dwarfed to the heights of one half to two thirds of those of the normal plants; and • grade 9: the leaves of the whole plates were spotted, severely deformed or necrotic, or the diseased plants were dwarfed to the heights of […] of those of the normal plants.

[2] = test system: wheat powdery mildew fungus; assay: Induction of wheat against infection by powdery mildew fungi (greenhouse pots); assay type: in vivo, wheat (NAU0686); details: for Disease index of the susceptible wheat / Relative immune effect: concentration greater than 1,000 nm
Method: […] A blank control was additionally set. After germination of wheat (NAU0686) seeds was accelerated, the wheat was planted in a sterilized soil culture bowl and cultured in a greenhouse at 23±1° C. with the illumination for 12 h. When the seedlings grew to a stage of one true leaf and one terminal bud, the wheat seedlings were sprayed with the 2-amino-3-indolyl butyric acid solutions at the above concentrations on stems and leaves. The treatment was repeated once every 24 h and a total of two treatments was performed. Fresh wheat powdery mildew fungus spores were evenly scattered on the wheat leaves after 24 h. 3 pots of the plants were treated each time with 20 plants in each pot. After 10 d, the disease grade of the wheat after each treatment was investigated. The disease degree was recorded according to the wheat powdery mildew grading standard in the Guidelines for Field Efficacy Trials of Pesticides (I), and the disease indexes and the relative immune effects were calculated by using the same calculation formula as that of those of the tomato spotted wilt.
Grading standard of wheat powdery mildew (taking leaves as units): • grade 1: the area of the disease spots accounted 5% or less of that of the whole leaves; • grade 3: the area of the disease spots accounted for 6%-15% of that of the whole leaves; and • grade 5: the area of the disease spots accounted for 16%-25% of that of the whole leaves; and • grade 7: the area of the disease spots accounted for 26%-50% of that of the whole leaves; and • grade 9: the area of the disease spots accounted for 50% or more of that of the whole leaves.

ryegrass = assay: Ryegrass under high temperature stress; assay type: in vivo; set-up: Heat damage index: scale not given here; details: for Heat damage index: 45° C. 12 h, recovery 7 d; for Heat damage index of the ryegrass decreased: vs control group
Method: 2-amino-3-indolyl butyric acid was dissolved in distilled water and gradiently diluted with distilled water to obtain solutions of 1 nm, 10 nm, 100 nm and 1,000 nm. A blank control was additionally set. Meanwhile, 0.02% Tween 20 was added as a surfactant. Each concentration was set to 4 replicates while a room temperature blank control was set. Ryegrass seeds were weighed at 0.8 g per pot, sown in a pot with the diameter of 8.5 cm and planted in a greenhouse at 25° C. with the humidity of 60%-70% and the light intensity of 200 μmolm^−2s^−1 (12 h light/12 h dark). After 7 d of growth, the ryegrass was treated by spraying the 2-amino-3-indolyl butyric acid solution on the leaf surfaces twice for 24 h. 24 h after the second spraying, the ryegrass was transferred to an illumination incubator at 45° C. for a high temperature stress treatment for 12 h. The plants were taken out and transferred to the greenhouse at 25° C. for recovery for 7 d. The damage conditions of the plants were observed and counted, and the heat damage grades were calculated. The heat damage grading standard was shown in table 8 and a calculation formula of the heat damage index was as follows.

[3] = 10 nm, as printed with % in summary
[4] = treatment concentration 0.1 nm, 15 d after inoculation
[5] = treatment concentration 1 nm, 15 d after inoculation
[6] = treatment concentration 10,000 nm

| SMILES | Disease index [1, 3] [%] | Disease indexes of the tobacco [1] | Relative immune effects [1] [%] | Content of virus proteins ([1]; treatment concentration 0.1 nm) [b] | Relative immune effect (%) ([1]; treatment concentration 0.1 nm) | Disease index [1, 4] [b] | Content of virus proteins ([1]; treatment concentration 1 nm) [c] | Relative immune effect (%) ([1]; treatment concentration 1 nm) | Disease index [1, 5] [c] | Relative immune effect (%) ([1]; treatment concentration 10 nm) | Disease index of the susceptible wheat [2] | Relative immune effect [2] | Relative immune effect (%) ([2]; treatment concentration 10 nm) | Relative immune effect (%) ([2]; treatment concentration 100 nm) | Relative immune effect (%) [2, 6] | Heat damage index (ryegrass; 1 nm) | Heat damage index (ryegrass; 10 nm) | Heat damage index (ryegrass; 100 nm) | Heat damage index (ryegrass; 1,000 nm) | Heat damage index of the ryegrass decreased (ryegrass; 1,000 nm) [%] | also measured |
| --- | --- | --- | --- | --- | --- | --- | --- | --- | --- | --- | --- | --- | --- | --- | --- | --- | --- | --- | --- | --- | --- |
| CC(c1c[nH]c2ccccc12)C(N)C(=O)O (centres unmarked) | 30.42 | lower than 50 | ≥ 45 | 0.41 ± 0.005 | 46.68 | 49.70 ± 1.51 | 0.32 ± 0.014 | 56.11 | 40.91 ± 3.14 | 67.36 | lower than 50 | exceeded 50% | 22.04 | 32.59 | 68.42% and 68.43% | 61 | 57 | 43 | 25 | 65 | Relative immune effect (%) ([2]; treatment concentration 1,000 nm): 53.58% |
| CC1CCNC1C(=O)O (centres unmarked) [3-methylpyrrolidine-2-carboxylic acid] | 21.44 | lower than 50 | ≥ 50 | 0.37 ± 0.003 | 50.84 | 41.31 ± 0.34 | 0.24 ± 0.001 | 68.43 | 27.89 ± 2.16 | 75.73 | lower than 50 | exceeded 50% | 25.04 | 43.73 | 68.57% | 57 | 50 | 38 | 20 | 68 | – |
